From patent US12643882B2, “Inhibitors of human respiratory syncytial virus and metapneumovirus” (priority 2022, dated 2026)
pEC50: −log10 of the molar value.

Assays:
RSV-A2-GFP virus = experiment: microbe, parasite or virus in culture; type: cell-based, Human Respiratory Syncytial Virus; details: human respiratory syncytial virus, Calu-1, 96 h, read-out: RSV EC50, Calu-1 cells infected with RSV-A2-GFP, 96 hrs, GFP-expressing cells counted
In short: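 IC50 (GFP-expressing cell counts by Acumen imaging) and CC50 (same-well CellTiter-Glo) were obtained by 4-parameter logistic fitting. Compounds were tested in 10-point 3-fold series for 96 h at 37° C, 5% CO2. Thawed Calu-1 ARF cells were infected at MOI 1.2 with GFP-reporter RSV-A2 in 2% FBS DMEM.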

hMPV-GFP virus = experiment: microbe, parasite or virus in culture; type: cell-based, human metapneumovirus; details: human metapneumovirus, Vero, 48 h, read-out: hMPV EC50, VERO cells infected with hMPV-GFP, 48 hrs, GFP-expressing cells counted
In short: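 Antiviral IC50 was derived from imaging counts of GFP-expressing cells, with CC50 from a same-well CellTiter-Glo read, both by 4-parameter logistic fitting. VERO cells plus hMPV-GFP (MOI 1.25) were exposed 48 h at 37 °C to 10-point 3-fold compound dilutions (typical final 40,300–2 nM).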

SMILES | pEC50 (RSV-A2-GFP virus) | pEC50 (hMPV-GFP virus)
CC(C)(N)c1cc(O[C@H]2[C@@H]3CN(C(=O)c4cn(-c5ncccn5)nc4Cn4nccn4)C[C@@H]32)nc(-c2ccc(F)cc2)c1 [Example 130, (3-((2H-1,2,3-triazol-2-yl)methyl)-1-(pyrimidin-2-yl)-1H-pyrazol-4-yl)((1R,5S,6s)-6-((4-(2-aminopropan-2-yl)-6-(4-fluorophenyl)pyridin-2-yl)oxy)-3-azabicyclo[3.1.0]hexan-3-yl)methanone] | > 8.00 | < 7.00
CC(C)(N)c1cc(O[C@H]2[C@@H]3CN(C(=O)c4cn(-c5ncccn5)nc4CCF)C[C@@H]32)nc(-c2ccc(F)cc2)c1 [Example 131, ((1R,5S,6s)-6-((4-(2-aminopropan-2-yl)-6-(4-fluorophenyl)pyridin-2-yl)oxy)-3-azabicyclo[3.1.0]hexan-3-yl)(3-(2-fluoroethyl)-1-(pyrimidin-2-yl)-1H-pyrazol-4-yl)methanone] | > 8.00 | < 7.00
CC(C)(N)c1cc(O[C@H]2[C@@H]3CN(C(=O)c4cn(-c5ncccn5)nc4CC(F)F)C[C@@H]32)nc(-c2ccc(F)cc2)c1 [Example 132, ((1R,5S,6s)-6-((4-(2-aminopropan-2-yl)-6-(4-fluorophenyl)pyridin-2-yl)oxy)-3-azabicyclo[3.1.0]hexan-3-yl)(3-(2,2-difluoroethyl)-1-(pyrimidin-2-yl)-1H-pyrazol-4-yl)methanone] | > 8.00 | < 7.00
